In US9115101B2 (Genentech, Inc., priority 2012, dated 2015):

Each compound was assayed against T1, RORc ligand binding domain (Homo sapiens, UniProt P51449) (assay: In Vitro RORc Ligand Binding Assay (25-[3H]hydroxycholesterol radioligand filtration)). Conditions: In Vitro RORc Ligand Binding Assay; Table 4; read-out: RORc IC50.
T1 construct: host or cells: E. coli
T1 sequence (P51449 269-508 limits assumed): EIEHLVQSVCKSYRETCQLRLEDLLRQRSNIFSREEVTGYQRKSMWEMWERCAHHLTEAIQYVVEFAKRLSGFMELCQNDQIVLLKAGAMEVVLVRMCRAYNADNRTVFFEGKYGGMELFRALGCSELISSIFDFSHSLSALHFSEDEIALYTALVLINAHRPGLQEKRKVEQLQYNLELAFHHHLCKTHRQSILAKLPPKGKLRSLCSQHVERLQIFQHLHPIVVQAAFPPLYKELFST

Compared with `CNC(=O)[C@@H]1CN(c2ccc(CN3[C@@H](C)CCC(c4ccccc4)S3(=O)=O)c(F)c2)CCN1C(C)=O` (stereo partly drawn) [Example 380, (S)-1-Acetyl-4-[3-fluoro-4-((3S)-methyl-1,1-dioxo-6-phenyl-[1,2]thiazinan-2-ylmethyl)-phenyl]-piperazine-2-carboxylic acid methylamide], `CNC(=O)[C@H]1CN(c2ccc(CN3[C@@H](C)CCC(c4ccccc4)S3(=O)=O)c(F)c2)CCN1C(C)=O` (stereo partly drawn) [Example 383, (R)-1-Acetyl-4-[3-fluoro-4-((3S)-methyl-1,1-dioxo-6-phenyl-[1,2]thiazinan-2-ylmethyl)-phenyl]-piperazine-2-carboxylic acid methylamide] is 5.1-fold higher in IC50: 0.138 µM for the first, 0.705 µM for the second. The first is the more potent here.

Compared with `CC(=O)N1CCN(c2ccc(CN3[C@@H](C)CCC(c4ccccc4)S3(=O)=O)c(F)c2)C[C@H]1C(N)=O` (stereo partly drawn) [Example 381, (S)-1-Acetyl-4-[3-fluoro-4-((3S)-methyl-1,1-dioxo-6-phenyl-[1,2]thiazinan-2-ylmethyl)-phenyl]-piperazine-2-carboxylic acid amide], `COC(=O)[C@@H]1CN(c2ccc(CN3[C@@H](C)CCC(c4ccccc4)S3(=O)=O)c(F)c2)CCN1C(C)=O` (stereo partly drawn) [Example 382, (S)-1-Acetyl-4-[3-fluoro-4-((3S)-methyl-1,1-dioxo-6-phenyl-[1,2]thiazinan-2-ylmethyl)-phenyl]-piperazine-2-carboxylic acid methyl ester] is 15-fold lower in IC50: 0.522 µM for the first, 0.034 µM for the second. The second is the more potent here.

First: CC(=O)N1CCN(c2ccc(CN3[C@@H](C)CCC(c4ccccc4)S3(=O)=O)c(F)c2)C[C@@H]1C(=O)N(C)C (stereo partly drawn) [Example 384, (R)-1-Acetyl-4-[3-fluoro-4-((3S)-methyl-1,1-dioxo-6-phenyl-[1,2]thiazinan-2-ylmethyl)-phenyl]-piperazine-2-carboxylic acid dimethylamide]
Second: CC(=O)N1CCN(c2ccc(CN3[C@@H](C)CCC(c4ccccc4)S3(=O)=O)c(F)c2)C[C@H]1C(=O)NC(C)C (stereo partly drawn) [Example 394, (S)-1-Acetyl-4-[3-fluoro-4-((3S)-methyl-1,1-dioxo-6-phenyl-[1,2]thiazinan-2-ylmethyl)-phenyl]-piperazine-2-carboxylic acid isopropylamide]
The IC50 of the first is 1.8-fold lower: 1.72 µM for the first, 3.18 µM for the second.

`CC(=O)N1CCN(c2ccc(CN3[C@@H](C)CCC(c4ccccc4)S3(=O)=O)c(F)c2)C[C@H]1C#N` (stereo partly drawn) [Example 385, (S)-1-Acetyl-4-[3-fluoro-4-((3S)-methyl-1,1-dioxo-6-phenyl-[1,2]thiazinan-2-ylmethyl)-phenyl]-piperazine-2-carbonitrile] and `CCCNC(=O)[C@@H]1CN(c2ccc(CN3[C@@H](C)CCC(c4ccccc4)S3(=O)=O)c(F)c2)CCN1C(C)=O` (stereo partly drawn) [Example 395, (S)-1-Acetyl-4-[3-fluoro-4-((3S)-methyl-1,1-dioxo-6-phenyl-[1,2]thiazinan-2-ylmethyl)-phenyl]-piperazine-2-carboxylic acid propylamide] are within 1.5-fold of each other in IC50: 0.24 µM for the first, 0.287 µM for the second.

First: C[C@H]1CCC(c2ccccc2)S(=O)(=O)N1Cc1ccc(C(=O)NC2CCS(=O)(=O)CC2)cc1 (stereo partly drawn) [Example 386, N-(1,1-Dioxo-hexahydro-1-thiopyran-4-yl)-4-((3S)-methyl-1,1-dioxo-6-phenyl-[1,2]thiazinan-2-ylmethyl)-benzamide]
Second: C[C@H]1CCC(c2ccccc2)S(=O)(=O)N1Cc1ccc(C(=O)NC2CCS(=O)(=O)C2)cc1 (stereo partly drawn) [Example 389, N-(1,1-Dioxo-tetrahydro-6-thiophen-3-yl)-4-((3S)-methyl-1,1-dioxo-6-phenyl-[1,2]thiazinan-2-ylmethyl)-benzamide]
The IC50 of the first is 2.2-fold lower: 1.49 µM for the first, 3.22 µM for the second.

First: C[C@H]1CCC(c2ccccc2)S(=O)(=O)N1Cc1ccc(C(=O)NC2CN(S(C)(=O)=O)C2)cc1 (stereo partly drawn) [Example 387, N-(1-Methanesulfonyl-azetidin-3-yl)-4-((3S)-methyl-1,1-dioxo-6-phenyl-[1,2]thiazinan-2-ylmethyl)-benzamide]
Second: C[C@H]1CCC(c2ccccc2)S(=O)(=O)N1Cc1ccc(C(=O)N[C@@H]2CCN(S(C)(=O)=O)C2)cc1 (stereo partly drawn) [Example 388, N-((R)-1-Methanesulfonyl-pyrrolidin-3-yl)-4-((3S)-methyl-1,1-dioxo-6-phenyl-[1,2]thiazinan-2-ylmethyl)-benzamide]
The IC50 of the first is 5.8-fold lower: 0.607 µM for the first, 3.52 µM for the second. The first is the more potent here.

First: C[C@H]1CCC(c2ccccc2)S(=O)(=O)N1Cc1ccc(C(=O)NC2CN(C(N)=O)C2)cc1 (stereo partly drawn) [Example 390, 3-[4-((3S)-Methyl-1,1-dioxo-6-phenyl-[1,2]thiazinan-2-ylmethyl)-benzoylamino]-azetidine-1-carboxylic acid amide]
Second: C[C@H]1CCC(c2ccccc2)S(=O)(=O)N1Cc1ccc(C(=O)N[C@@H]2CCN(C(N)=O)C2)cc1 (stereo partly drawn) [Example 391, (R)-3-[4-((3S)-Methyl-1,1-dioxo-6-phenyl-[1,2]thiazinan-2-ylmethyl)-benzoylamino]-pyrrolidine-1-carboxylic acid amide]
The IC50 of the first is 1.6-fold higher: 5.46 µM for the first, 3.43 µM for the second. The second is the more potent here.

Compared with `COC(=O)[C@@H]1CN(C(C)=O)CCN1c1ccc(CN2[C@@H](C)CCC(c3ccccc3)S2(=O)=O)c(F)c1` (stereo partly drawn) [Example 392, (S)-4-Acetyl-1-[3-fluoro-4-((3S)-methyl-1,1-dioxo-6-phenyl-[1,2]thiazinan-2-ylmethyl)-phenyl]-piperazine-2-carboxylic acid methyl ester], `COCCNC(=O)[C@@H]1CN(c2ccc(CN3[C@@H](C)CCC(c4ccccc4)S3(=O)=O)c(F)c2)CCN1C(C)=O` (stereo partly drawn) [Example 393, (S)-1-Acetyl-4-[3-fluoro-4-((3S)-methyl-1,1-dioxo-6-phenyl-[1,2]thiazinan-2-ylmethyl)-phenyl]-piperazine-2-carboxylic acid (2-methoxy-ethyl)-amide] is 54-fold higher in IC50: 0.013 µM for the first, 0.697 µM for the second.

Going from `C[C@H]1CCC(c2ccccc2)S(=O)(=O)N1Cc1ccc(N2CCN3C(=O)CNC(=O)[C@H]3C2)cc1F` (stereo partly drawn) [Example 396, (R)-8-[3-Fluoro-4-((3S)-methyl-1,1-dioxo-6-phenyl-[1,2]thiazinan-2-ylmethyl)-phenyl]-hexahydro-pyrazino[1,2-a]pyrazine-1,4-dione] to `CCOC(=O)c1ncc2n1CCN(c1ccc(CN3[C@@H](C)CCC(c4ccccc4)S3(=O)=O)c(F)c1)C2` (stereo partly drawn) [Example 397, 7-[3-Fluoro-4-((3S)-methyl-1,1-dioxo-6-phenyl-[1,2]thiazinan-2-ylmethyl)-phenyl]-5,6,7,8-tetrahydro-imidazo[1,5-a]pyrazine-3-carboxylic acid ethyl ester], the IC50 falls from 3.25 µM to 0.872 µM (3.7-fold). The second is the more potent here.

Work on `C[C@H]1CCC(c2ccccc2)S(=O)(=O)N1Cc1ccc(C(=O)N2CCS(=O)(=O)CC2)cc1` (stereo partly drawn) [Example 398, (1,1-Dioxo-1-thiomorpholin-4-yl)-[4-((3S)-methyl-1,1-dioxo-6-phenyl-[1,2]thiazinan-2-ylmethyl)-phenyl]-methanone] yielded an IC50 of 5.71 µM.

Same assay, conditions: RORc IC50

`O=S1(=O)[C@@H](c2ccccc2)CCC2(CC2)N1Cc1ccc(N2CCC(n3cnnc3)CC2)cc1F` [Example 415, (R)-4-[2-Fluoro-4-(4-[1,2,4]triazol-4-yl-piperidin-1-yl)-benzyl]-6-phenyl-5-thia-4-aza-spiro[2.5]octane 5,5-dioxide] gave an IC50 of 0.037 µM.

Same assay, conditions: read-out: RORc IC50

Compared with `CC(=O)N1CCN(c2ccc(CN3[C@@H](C)CCC(c4ccccc4)S3(=O)=O)c(F)c2)C[C@H]1C(=O)NCCO` (stereo partly drawn) [Example 399, (S)-1-Acetyl-4-[3-fluoro-4-((3S)-methyl-1,1-dioxo-6-phenyl-[1,2]thiazinan-2-ylmethyl)-phenyl]-piperazine-2-carboxylic acid (2-hydroxy-ethyl)-amide], `CONC(=O)[C@@H]1CN(c2ccc(CN3[C@@H](C)CCC(c4ccccc4)S3(=O)=O)c(F)c2)CCN1C(C)=O` (stereo partly drawn) [Example 407, (S)-1-Acetyl-4-[3-fluoro-4-((3S)-methyl-1,1-dioxo-6-phenyl-[1,2]thiazinan-2-ylmethyl)-phenyl]-piperazine-2-carboxylic acid methoxy-amide] is 11-fold lower in IC50: 1.59 µM for the first, 0.148 µM for the second.

First: C[C@H]1CCC(c2ccccc2)S(=O)(=O)N1Cc1ccc(N2CCN3C(=O)OCC3C2)cc1F (stereo partly drawn) [Example 400, 7-[3-Fluoro-4-((3S)-methyl-1,1-dioxo-6-phenyl-[1,2]thiazinan-2-ylmethyl)-phenyl]-hexahydro-oxazolo[3,4-a]pyrazin-3-one]
Second: C[C@H]1CCC(c2ccccc2)S(=O)(=O)N1Cc1ccc(N2CCN3C(=O)CNC(=O)[C@@H]3C2)cc1F (stereo partly drawn) [Example 401, (S)-8-[3-Fluoro-4-((3S)-methyl-1,1-dioxo-6-phenyl-[1,2]thiazinan-2-ylmethyl)-phenyl]-hexahydro-pyrazino[1,2-a]pyrazine-1,4-dione]
The IC50 of the first is 29-fold lower: 0.095 µM for the first, 2.79 µM for the second. The first is the more potent here.

First: C[C@H]1CCC(c2ccccc2)S(=O)(=O)N1Cc1ccc(N2CCN3C(=O)CN(C)C(=O)[C@@H]3C2)cc1F (stereo partly drawn) [Example 402, (S)-8-[3-Fluoro-4-((3S)-methyl-1,1-dioxo-6-phenyl-[1,2]thiazinan-2-ylmethyl)-phenyl]-2-methyl-hexahydro-pyrazino[1,2-a]pyrazine-1,4-dione]
Second: C[C@H]1CCC(c2ccccc2)S(=O)(=O)N1Cc1ccc(N2CCn3c(cnc3C(N)=O)C2)cc1F (stereo partly drawn) [Example 403, 7-[3-Fluoro-4-((3S)-methyl-1,1-dioxo-6-phenyl-[1,2]thiazinan-2-ylmethyl)-phenyl]-5,6,7,8-tetrahydro-imidazo[1,5-a]pyrazine-3-carboxylic acid amide]
The IC50 of the first is 10-fold higher: 3.54 µM for the first, 0.346 µM for the second. The second is the more potent here.

First: C[C@H]1CCC(c2ccccc2)S(=O)(=O)N1Cc1ccc(N2CCn3c(cnc3CO)C2)cc1F (stereo partly drawn) [Example 404, {7-[3-Fluoro-4-((3S)-methyl-1,1-dioxo-6-phenyl-[1,2]thiazinan-2-ylmethyl)-phenyl]-5,6,7,8-tetrahydro-imidazo[1,5-a]pyrazin-3-yl}-methanol]
Second: C[C@H]1CCC(c2ccccc2)S(=O)(=O)N1Cc1ccc(N2CCC(c3cn[nH]c3)CC2)cc1 (stereo partly drawn) [Example 414, (3S)-Methyl-6-phenyl-2-{4-[4-(1H-pyrazol-4-yl)-piperidin-1-yl]-benzyl}-[1,2]thiazinane 1,1-dioxide]
The IC50 of the first is 84-fold higher: 0.504 µM for the first, 0.006 µM for the second.
